{"source": "ChEMBL document CHEMBL1151396", "about": "“Synthesis of naphthoquinoles as potential antitumor agents related to jacaranone” (1982)", "key": {"[1]": {"test_system": "KB", "assay": "Cytotoxicity against human KB cells", "format": "functional", "settings": "read-out: ED50 (the source's name)"}, "[2]": {"test_system": "P388", "assay": "In vivo cytotoxicity against mouse P388 cells at 2 mg/kg relative to control", "format": "functional"}}, "data": [{"smiles": "COC(=O)CC1(O)C=CC(=O)c2ccccc21", "note": "(stereo unspecified)", "values": [{"measurement": "EC50", "setting": "[1]", "result": 20, "unit": "mg/L"}]}, {"smiles": "CCOC(=O)CC1(O)C=CC(=O)C=C1", "values": [{"measurement": "EC50", "setting": "[1]", "result": 3.3, "unit": "mg/L"}]}, {"smiles": "COC(=O)CC1(O)C=CC(=O)C=C1", "note": "[JACARANONE]", "values": [{"measurement": "T/C", "setting": "[2]", "result": 165, "unit": "%"}, {"measurement": "EC50", "setting": "[1]", "result": 2.1, "unit": "mg/L"}]}, {"smiles": "COC(=O)CC1(O)C=C(OC)C(=O)c2ccccc21", "note": "(stereo unspecified)", "values": [{"measurement": "EC50", "setting": "[1]", "result": 25, "unit": "mg/L"}]}, {"smiles": "COC(=O)CC1(O)C=C(C)C(=O)c2ccccc21", "note": "(stereo unspecified)", "values": [{"measurement": "EC50", "setting": "[1]", "result": 100, "unit": "mg/L"}]}]}
